Source: PubChem BioAssay (NCI)
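Compound exposure: 48 hours, 5 concentrations, 96-well plates. The concentration for 50% growth inhibition is given as GI50. TGI marks complete inhibition of growth.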

Tests used:
Assay in all cases: NCI tumour cell line growth inhibition, 48 h
MCF7 breast = tested on: MCF7 breast
HOP-62 NSCLC = tested on: HOP-62 NSCLC
HCC-2998 colon = tested on: HCC-2998 colon
SF-268 CNS = tested on: SF-268 CNS
UACC-62 melanoma = tested on: UACC-62 melanoma
EKVX NSCLC = tested on: EKVX NSCLC
COLO 205 colon = tested on: COLO 205 colon
HS 578T breast = tested on: HS 578T breast
SN12C renal = tested on: SN12C renal
K-562 leukemia = tested on: K-562 leukemia
OVCAR-5 ovarian = tested on: OVCAR-5 ovarian
SK-OV-3 ovarian = tested on: SK-OV-3 ovarian
CCRF-CEM leukemia = tested on: CCRF-CEM leukemia
SK-MEL-2 melanoma = tested on: SK-MEL-2 melanoma
HL-60(TB) leukemia = tested on: HL-60(TB) leukemia
MALME-3M melanoma = tested on: MALME-3M melanoma
OVCAR-8 ovarian = tested on: OVCAR-8 ovarian
A498 renal = tested on: A498 renal
SR leukemia = tested on: SR leukemia
MDA-MB-231 breast = tested on: MDA-MB-231 breast
NCI-H460 lung = tested on: NCI-H460 lung
RPMI-8226 leukemia = tested on: RPMI-8226 leukemia
UACC-257 melanoma = tested on: UACC-257 melanoma
HT29 colon = tested on: HT29 colon
CAKI-1 renal = tested on: CAKI-1 renal
NCI-H522 lung = tested on: NCI-H522 lung
DU-145 prostate = tested on: DU-145 prostate
TK-10 renal = tested on: TK-10 renal
SW-620 colon = tested on: SW-620 colon
A549 NSCLC = tested on: A549 NSCLC
HCT-116 colon = tested on: HCT-116 colon
BT-549 breast = tested on: BT-549 breast
SF-295 CNS = tested on: SF-295 CNS
MDA-MB-435 = tested on: MDA-MB-435
NCI/ADR-RES ovarian = tested on: NCI/ADR-RES ovarian
OVCAR-4 ovarian = tested on: OVCAR-4 ovarian
T-47D breast = tested on: T-47D breast
SNB-75 CNS = tested on: SNB-75 CNS
SK-MEL-28 melanoma = tested on: SK-MEL-28 melanoma
SK-MEL-5 melanoma = tested on: SK-MEL-5 melanoma
MOLT-4 leukemia = tested on: MOLT-4 leukemia

C#Cc1ccc(NC(=O)c2ccc(/C=C/C(=O)c3nccn3C)cc2)c(F)c1
GI50 (MCF7 breast): 1290 nM | TGI (MCF7 breast): > 50000 nM | GI50 (HOP-62 NSCLC): 1540 nM | TGI (HOP-62 NSCLC): > 50000 nM | GI50 (HCC-2998 colon): 1740 nM | TGI (HCC-2998 colon): > 50000 nM | GI50 (SF-268 CNS): 1630 nM | TGI (SF-268 CNS): > 50000 nM | GI50 (UACC-62 melanoma): 1930 nM | TGI (UACC-62 melanoma): > 50000 nM | GI50 (EKVX NSCLC): 1410 nM | TGI (EKVX NSCLC): > 50000 nM | GI50 (COLO 205 colon): 4020 nM | TGI (COLO 205 colon): > 50000 nM | GI50 (HS 578T breast): 1880 nM | TGI (HS 578T breast): > 50000 nM | GI50 (SN12C renal): 1440 nM | TGI (SN12C renal): > 50000 nM | GI50 (K-562 leukemia): 853 nM | TGI (K-562 leukemia): > 50000 nM | GI50 (OVCAR-5 ovarian): 1770 nM | TGI (OVCAR-5 ovarian): > 50000 nM | GI50 (SK-OV-3 ovarian): 2530 nM | TGI (SK-OV-3 ovarian): > 50000 nM | GI50 (CCRF-CEM leukemia): 1080 nM | TGI (CCRF-CEM leukemia): 5850 nM | GI50 (SK-MEL-2 melanoma): > 50000 nM | TGI (SK-MEL-2 melanoma): > 50000 nM | GI50 (HL-60(TB) leukemia): 844 nM | TGI (HL-60(TB) leukemia): 2430 nM | GI50 (MALME-3M melanoma): 3760 nM | TGI (MALME-3M melanoma): > 50000 nM | GI50 (OVCAR-8 ovarian): 1910 nM | TGI (OVCAR-8 ovarian): > 50000 nM | GI50 (A498 renal): 2500 nM | TGI (A498 renal): > 50000 nM | GI50 (SR leukemia): 545 nM | TGI (SR leukemia): 4440 nM | GI50 (MDA-MB-231 breast): 2140 nM | TGI (MDA-MB-231 breast): 22400 nM | GI50 (NCI-H460 lung): 1120 nM | TGI (NCI-H460 lung): 2680 nM | GI50 (RPMI-8226 leukemia): 522 nM | TGI (RPMI-8226 leukemia): 2140 nM | GI50 (UACC-257 melanoma): > 50000 nM | TGI (UACC-257 melanoma): > 50000 nM | GI50 (HT29 colon): 1490 nM | TGI (HT29 colon): > 50000 nM | GI50 (CAKI-1 renal): 2270 nM | TGI (CAKI-1 renal): > 50000 nM | GI50 (NCI-H522 lung): 2160 nM | TGI (NCI-H522 lung): > 50000 nM | GI50 (DU-145 prostate): 1810 nM | TGI (DU-145 prostate): 45600 nM | GI50 (TK-10 renal): > 50000 nM | TGI (TK-10 renal): > 50000 nM | GI50 (SW-620 colon): 1330 nM | TGI (SW-620 colon): > 50000 nM | GI50 (A549 NSCLC): 1510 nM | TGI (A549 NSCLC): > 50000 nM | GI50 (HCT-116 colon): 876 nM | TGI (HCT-116 colon): 1940 nM | GI50 (BT-549 breast): 823 nM | TGI (BT-549 breast): 2250 nM | GI50 (SF-295 CNS): 1740 nM | TGI (SF-295 CNS): 16800 nM | GI50 (MDA-MB-435): 1860 nM | TGI (MDA-MB-435): > 50000 nM | GI50 (NCI/ADR-RES ovarian): 1500 nM | TGI (NCI/ADR-RES ovarian): > 50000 nM | GI50 (OVCAR-4 ovarian): 2650 nM | TGI (OVCAR-4 ovarian): > 50000 nM | GI50 (T-47D breast): 1840 nM | TGI (T-47D breast): > 50000 nM | GI50 (SNB-75 CNS): 1000 nM | TGI (SNB-75 CNS): 4340 nM | GI50 (SK-MEL-28 melanoma): > 50000 nM | TGI (SK-MEL-28 melanoma): > 50000 nM | GI50 (SK-MEL-5 melanoma): 2040 nM | TGI (SK-MEL-5 melanoma): > 50000 nM | GI50 (MOLT-4 leukemia): 1370 nM | TGI (MOLT-4 leukemia): 5420 nM
